Measured values taken from paper PMC3744530, “CTA095, a Novel Etk and Src Dual Inhibitor, Induces Apoptosis in Prostate Cancer Cells and Overcomes Resistance to Src Inhibitors” (PLoS ONE, 2013).

Legend:
[1] = tested on: Src phosphorylation in PC3-Etk cells; assay: Western blot of Src phosphorylation in intact cells; format: cell-based, human; conditions: 5 μM and 10 μM, 24 h
Experimental: (§1) Western blotting was performed as described previously. Proteins were detected using the following antibodies: β-actin (Sigma-Aldrich, Saint Louis, MO), Etk (Santa Cruz Inc., Santa Cruz, CA), pEtk; Src, pSrc; Stat3, pStat3. For phospho-Etk, cells were pre-treated with 100 μM pervanadate for 15 min before harvest.
(§2) Figure 4 Inhibition of cell signaling in PC3 cells following treatment with CTA095. Cells were grown in 10 mm plate to 50% confluence and treated with CTA095. Cells were harvested after 24 h. pEtk, Etk, pSrc, Src, pStat3, Stat3, pAkt and Akt levels were measured using the corresponding antibodies by Western blot. One of three similar experiments depicted.

[2] = tested on: Akt phosphorylation in PC3 cells; assay: Western blot of Akt phosphorylation; format: cell-based, human; conditions: 24 h
Experimental: as §1, §2

[3] = tested on: caspase 9 in PC3 cells; assay: Caspase 9 activation (Western blot); format: cell-based, human; conditions: PC3, 0–10 μM, 24 h
Experimental: For caspase 3/7 activities, PC3 cells were seeded at 5,000 cells/well in 96-well plate overnight. Then the cells were treated with 0–10 μM CTA095 for 24 h. Caspase-3/7 activities were measured using the Apo-ONE Homogeneous Caspase-3/7 Assay kit (Promega, Madison, WI) according to the manufacturer's instruction. For caspase 9 activity, PC3 cells were seeded in 10 mm tissue culture plate and grew to 50% confluence. Cells were then treated with 0–10 μM CTA095 for 24 h. Cells were harvested and caspase 9 activity was measured using a Western blot with an anti-caspase 9 antibody.
Figure 7 Induction of apoptosis of PC3 cells following treatment with CTA095. PC3 cells were seeded at 10^6 cells/ml (2 ml) in a 6-well plate overnight and then treated with CTA095 at the indicated concentrations for 24 h. Cell cycle arrest was analyzed using PI staining (A). Apoptosis was analyzed using Annexin-V FITC apoptosis detection kit (B). Caspase 9 activation was measured using western blot (D). For caspase 3/7 activity, PC3 cells were seeded at 5000 cells/well in 96 well plate overnight and treated with CTA095 at 0–10 μM for 24 h. Caspase-3/7 activities were measured using the Apo-ONE Homogeneous Caspase-3/7 Assay kit (Promega, Madison, WI) according to the manufacturer's instruction. Columns, mean; bars, standard deviation, n = 3. […]

[4] = tested on: 293 cells (Etk negative); assay: Annexin V-FITC apoptosis in 293 cells; format: cell-based; conditions: 24 h
Experimental: Supplementary file pone.0070910.s005.tif: Figure S5 Induction of apoptosis of 293 cells following treatment with CTA095. 293 cells were seeded at 10^6 cells/ml (2 ml) in a 6-well plate overnight and then treated with CTA095 at the indicated concentrations for 24 h. Apoptosis was analyzed using Annexin-V FITC apoptosis detection kit. Columns, mean; bars, standard deviation, n = 3. (TIF) Click here for additional data file.

[5] = tested on: PC3 cells stably transfected with GFP-LC3; assay: Autophagy assay (GFP-LC3 puncta, LC3 immunoblot); format: cell-based, human; conditions: PC3 GFP-LC3, 5 μM, 24 h
Experimental: PC3 cells were stably transfected with GFP-LC3 [16]. Cells were grown in a 6-well plate to 50% confluence and treated with 5 μM CTA095 for 24 h. Autophagy was visualized by GFP-LC3 “puncta” and immunoblot of Endogenous LC3 isoforms.
Figure 6 Induction of autophagy in PC3 cells by CTA095. Cells were grown in 6-well plate to 50% confluence and treated with CTA095. Autophagy was visualized by GFP-LC3 “puncta” (A) and immunoblot of Endogenous LC3 isoforms (B). All experiments were carried out 24 h after treatment.

[6] = tested on: PC3 cells; assay: PC3 cell wound healing assay; format: cell-based, human; conditions: 5 μM, after 48 h
Experimental: PC3 cells were grown in 6-well plate to 60% confluency. Then wounds were made using a tip and treated with CTA095 (0 and 5 μM). Cell migration (wound healing) was visualized under microscope at the indicated times.
Figure 8 Inhibition of tube formation and cell migration by CTA095. Inhibition of vascular tube formation of HUVEC endothelial cells (A) and inhibition of migration (wound healing) of PC3 human prostate cancer cells (B) by CTA095. (A) HUVEC cells were seed on mitrogel and treated with CTA095 (0 and 5 μM) for 6 h. Vascular tube formation was visualized using microscope. (B) PC3 cells were grown in 6-well plate to 60% confluency. Then wounds were made and treated with CTA095 (0 and 5 μM). Cell migration (wound healing) was visualized under microscope at the indicated times.

[7] = tested on: PC3-AZD20 cells; assay: Annexin-V FITC apoptosis in Src inhibitor resistant cells; format: cell-based, human; conditions: 10 μM
Experimental: (§3) PC3-AZD20 cells were seeded at 10^6 cells/well in 6 well plates overnight. The cells were treated with AZD0530 or CTA095 at 10 μM. Apoptosis was analyzed using Annexin-V FITC apoptosis detection kit. The mRNA levels of Myc and BCL2 were measured using real-time PCR. pEtk, Etk, pSrc, Src, pStat3, Stat3, Myc and BCL2 levels were measured using the corresponding antibodies through a Western blot.
(§4) Figure 12 CTA095 induces apoptosis in Src inhibitor resistant prostate cancer cells through Myc and BCL2 inhibition. PC3-AZD20 (PC3 cell resistant to 20 μM AZD0530) cells were seeded at 10^6 cells/well in 6 well plates overnight. The cells were treated with AZD0530 or CTA095 at 10 μM. Apoptosis was analyzed using Annexin-V FITC apoptosis detection kit (A). The mRNA levels of Myc and BCL2 were measured using real-time PCR (B). pEtk, Etk, pSrc, Src, pStat3, Stat3, Myc and BCL2 levels were measured using the corresponding antibodies through Western blot (C). Columns, mean; bars, standard deviation, n = 3.

[8] = tested on: Myc mRNA in PC3-AZD20 cells; assay: Real-time PCR of Myc mRNA; format: cell-based, human; conditions: PC3-AZD20, 10 μM, RT-PCR
Experimental: as §3, §4

[9] = tested on: BCL2 mRNA in PC3-AZD20 cells; assay: Real-time PCR of BCL2 mRNA; format: cell-based, human; conditions: PC3-AZD20, 10 μM, RT-PCR
Experimental: as §3, §4

Compound: O=c1[nH]c2cc3nc(-c4ccc5oc6ccccc6c5c4)n(CCCN4CCCCC4)c3cc2nc1-c1ccccc1 [CTA095, 2-(dibenzo[b,d]furan-2-yl)-7-phenyl-1-(3-(piperidin-1-yl)propyl)-1H-imidazo[4,5-g]quinoxalin-6(5H)-one]
- Src phosphorylation [1]: significantly inhibited
- Akt phosphorylation [2]: inhibited
- activation of caspase 9 [3]: dose dependent activation
- induction of apoptosis [4]: resistant to induce apoptosis
- autophagy (GFP-LC3 puncta) [5]: extensive distinct “puncta” autophagosome morphology
- wound healing of PC3 cells [6]: greatly inhibited
- apoptosis in PC3-AZD20 cells [7]: Massive apoptosis was induced
- Myc mRNA level [8]: significantly down regulated
- BCL2 mRNA level [9]: significantly down regulated
